# Assay results: US20110178104A1, “Anti-Heparin Compounds” (POLYMEDIX INC., priority 2010, published 2011)
# Several values for one entry are separate records, joined by “and”; a condition that tells them apart may be missing. Equal entries are not always repeated.
# What was measured:
# [1] = Coagulation properties via ROTEM; conditions: at fully efficacious doses
# [2] = tested on: enoxaparin; assay: Enoxaparin-extended bleeding times, rat tail transection model; format: in vivo; conditions: for neutralization of prolonged bleeding times: rat, enoxaparin 2 mg/kg IV
# Experimental: Studies have now been done to examine effects on extended bleeding times caused by enoxaparin treatment. Male Sprague Dawley rats (Charles River) were administered 2 mg/kg enoxaparin by IV injection in the tail vein, followed 3 minutes later by test agent (IV, tail vein) at 2 and 5 mg/kg doses. Tails were then rapidly transected and bleeding time onto an absorbant pad was determined. Enoxaparin alone (no antagonist) extends bleeding time from 11 to 24 seconds.
# [3] = tested on: fondaparinux; assay: In vivo neutralization of fondaparinux in the rat; conditions: for reduction of Factor Xa (anti-factor Xa) levels after fondaparinux: fondaparinux 0.5 mg/kg IV, test agent 2 and 5 mg/kg IV
# Experimental: Compounds were selected to test fondaparinux neutralization in vivo. Rats were pre-treated with fondaparinux administered by IV injection at 0.5 mg/kg. The rats were then treated with a single IV injection of saline, protamine or the PMX compound. Blood was collected via the orbital sinus from three rats per group at the following time points: pre-dose, 1, 3, 10, 30 and 60 min. Plasma samples were prepared for analysis of anti-factor Xa activity using an AMEX Destiny Plus Coagulation Analyzer.
# [4] = tested on: fondaparinux; assay: FXa amidolytic assay (Example 10), fondaparinux; conditions: for EC50: read-out: Fondap FXa EC50, fondaparinux 0.02 μg/mL, human antithrombin, bovine Factor Xa
# [5] = tested on: blood pressure; assay: Hemodynamic responses in the anesthetized rat; format: in vivo; conditions: for hemodynamic liabilities (summary): rat, in vivo; for hemodynamic response profile: anesthetized rat, 8 or 16 mg/kg 10 minute IV infusion after heparin 50 U/kg
# Description: As a key safety issue for cationic compounds is reduction in blood pressure shortly after administration. To address this hemodynamic issue, a medicinal chemistry strategy with literature precedence of introducing carboxylic acid functionality was applied to the salicylamide series of compounds. […] Surgically prepared animals were purchased from Charles River Laboratories, Raleigh, N.C. Animals were anesthetized on the day of experiment with isoflurane (1.8-4%). Blood pressure and heart rate data were collected on a Grass Polygraph recorder. The test articles, vehicle or protamine dosing preparations were administered once to each rat by a 10 minute intravenous infusion three minutes following a single intravenous injection of heparin (50 U/kg). Each animal received a dose volume of 2.0 mL/kg. Blood pressure was recorded prior to treatment for approximately 1 minute and immediately following heparin, immediately following vehicle, test articles or protamine and at 5, 15, 30, and 60 minutes following dosing. The doses of test agent were either 8 mg/kg or 16 mg/kg. The differences in hemodynamic effect at 16 mg/kg were especially profound (FIG. 5).
# [6] = tested on: isolated human erythrocytes; assay: in vitro; format: cell-based; conditions: for EC50: Homo sapiens, Erythrocyte, 1 h, human RBC, 1 hour at 37° C., read-out: Hemolysis EC50
# How it was run: (§1)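 Pooled human red cells, washed and diluted from a 0.22% stock suspension in TBS pH 7.4, were shaken with two-fold dilutions (1000 to 0.48 µg/ml) for 1 h at 37 °C. Released hemoglobin in the supernatant was read at OD405. EC50 came from a four-parameter logistic fit, with melittin as positive control.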
# [7] = tested on: enoxaparin; assay: In vivo neutralization of enoxaparin in the rat; conditions: for in vivo efficacy versus LMWH by anti-factor Xa activity (summary): compared with protamine; for neutralization of enoxaparin (aPTT and factor Xa assays, words): rat, enoxaparin 2 mg/kg IV
# Experimental: Compounds were tested for their ability to neutralize enoxaparin coagulation inhibition in rats. Male Sprague-Dawley rats were used in this study (Charles River Laboratories). They were ten-weeks-old at the start of the study and their weights ranged from 319-362 g. Enoxaparin (2 mg/kg) was administered by IV injection to groups of six rats. After 3 min, saline, protamine or a test compound was administered by IV injection. Blood was collected before dosing with enoxaparin, and at 1, 3, 10, 30 and 60 min after dosing with the standard and test compounds. All treatments were dosed in a volume of 1 mL/kg. Blood was collected via the orbital sinus from three rats per group. At each time point, 1 mL of blood was collected from each animal into a single tube. The blood was analyzed using an AMEX Destiny Plus Coagulation Analyzer for activated partial thromboplastin time (APTT) and anti-Factor Xa (low-molecular weight).
# [8] = tested on: NIH/3T3 cells; assay: Cytotoxicity colorimetric assay, NIH/3T3; format: cell-based, mouse; conditions: for Cytotoxicity 3T3, percent printed in parentheses after the concentration: at the concentration given; for Cytotoxicity 3T3 EC50: one hour in serum-free media
# How it was run: (§2)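 HepG2 cells (3×10^4/well, MEM + 10% FBS) and NIH/3T3 cells (2×10^4/well, DMEM + 10% BCS) were exposed to compound for 1 h in serum-free medium. Viability read by tetrazolium-to-formazan bioreduction after return to serum medium; EC50 from a four-parameter logistic fit.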
# [9] = Cytotoxicity colorimetric assay, NIH/3T3; format: cell-based, mouse; conditions: mouse, NIH/3T3 cells, one hour in serum-free media
# How it was run: as §2
# [10] = tested on: UFH; assay: FXa amidolytic assay (Example 10), UFH; conditions: read-out: Heparin FXa uM EC50; UFH 0.03 units/mL; human antithrombin, bovine Factor Xa
# [11] = tested on: enoxaparin; assay: FXa amidolytic assay (Example 10), enoxaparin; conditions: read-out: Enox FXa EC50; enoxaparin 0.1 ug/ml; human antithrombin, bovine Factor Xa
# [12] = Cytotoxicity colorimetric assay, HepG2; format: cell-based, human; design: Cytotoxicity HepG2, percent printed in parentheses after the concentration: concentration or dose not given beside the values; conditions: human, HepG2 cells, one hour in serum-free media
# How it was run: as §2
# [13] = tested on: HepG2 cells; assay: Cytotoxicity colorimetric assay, HepG2; format: cell-based, human; design: Cytotoxicity HepG2, percent printed in parentheses after the concentration: concentration or dose not given beside the values; conditions: for Cytotoxicity HepG2, percent printed in parentheses after the concentration: at the concentration given; for Cytotoxicity HepG2 EC50: one hour in serum-free media
# How it was run: as §2
# [14] = tested on: tinzaparin; assay: FXa amidolytic assay (Example 10), tinzaparin; conditions: read-out: Tinzap FXa EC50; tinzaparin 0.1 ug/ml; human antithrombin, bovine Factor Xa
# [15] = tested on: Unfractionated heparin; assay: aPTT clotting assay, UFH 0.4 U/mL in plasma (Example 10); format: biochemical; conditions: unfractionated heparin 0.4 U/mL in plasma; aPTT clotting
# Experimental: aPTT clotting Assay: Unfractionated heparin was mixed with plasma at a final concentration of 0.4 U/mL (or concentration which increases aPTT time to between 120 and 300 seconds). […] The ACL Elite Hemostasis analyzer (Beckman Coulter™) was used to add aPTT reagent (HemosIL SynthASil) to supplemented plasma. Clotting was initiated by addition of CaCl2 and time to clot was recorded.
# [16] = in vitro; format: cell-based, human; conditions: human, pH 7.4
# How it was run: as §1
Structure (SMILES),EC50 [10],EC50 [11],EC50 [14],EC50 [4],EC50 [15],coagulation properties via ROTEM [1],neutralization of prolonged bleeding times ([2]; test agent 5 mg/kg IV),reduction of Factor Xa (anti-factor Xa) levels after fondaparinux [3],Potent LMWH-antagonists with superior anti-fondaparinux activity (summary) [4],hemodynamic liabilities (summary) [5],hemolysis and cytotoxicity (summary) [6],in vivo efficacy versus LMWH by anti-factor Xa activity (summary) [7],in vivo efficacy versus fondaparinux (summary) [3],"Cytotoxicity 3T3, percent printed in parentheses after the concentration [8] [%]",Cytotoxicity 3T3 EC50 [8] [µg/mL],EC50 at 1 h [9] [µg/mL],"neutralization of enoxaparin (aPTT and factor Xa assays, words) [7]",EC50 at 1 h [12] [µg/mL],Cytotoxicity HepG2 EC50 [13] [µg/mL],EC50 [6] [µg/mL],other results
COc1cc(OC)c(C(=O)N[C@H]2CC[C@H](NC(=O)c3cc(C(=O)NCCN(C)C)c(OCCCCCNC(=N)N)cc3OCCCCCNC(=N)N)CC2)cc1C(=O)N[C@H]1CC[C@H](NC(=O)c2cc(C(=O)NCCN(C)C)c(OCCCCCNC(=N)N)cc2OCCCCCNC(=N)N)CC1 [Compound B],,,,,,normal coagulation properties at fully efficacious doses,not completely reverse,lack of effectiveness,superior anti-fondaparinux activity,reduced hemodynamic liabilities,non-hemolytic and low cytotoxicity,superior to protamine,,,,,,,,,
COc1ccc(NC(=O)[C@@H](CCCNC(=N)N)NC(=O)c2cc(NC(=O)[C@@H](CCCNC(=N)N)NC(=O)c3cc(NC(=O)[C@@H](CCCNC(=N)N)NC(=O)c4cc(NC(=O)[C@H](N)CCCNC(=N)N)ccc4OC)ccc3OC)ccc2OCC(=O)O)cc1C(=O)N[C@H](Cc1c[nH]c2ccccc12)C(N)=O [Compound 305],0.343 µM,186 nM,,,,normal coagulation properties at fully efficacious doses,,effective in reducing Factor Xa activity,superior anti-fondaparinux activity,reduced hemodynamic liabilities,non-hemolytic and low cytotoxicity,superior to protamine,in vivo efficacy versus fondaparinux,50,>1000,1000,marginally more efficacious than the 3-Arg derivative,1000,>1000,,"in vivo efficacy versus LMWH by bleeding time (summary) ([2]; compared with protamine): superior to protamine; neutralization of prolonged bleeding times ([2]; test agent 2 mg/kg IV): completely neutralized; hemodynamic response profile [5]: superior to protamine; Cytotoxicity HepG2, percent printed in parentheses after the concentration [13]: 50%"
COc1ccc(NC(=O)[C@H](CCCCN)NC(=O)c2cc(NC(=O)[C@H](CCCCN)NC(=O)c3cc(NC(=O)[C@H](CCCCN)NC(=O)c4cc(NC(=O)[C@@H](N)CCCCN)ccc4OC)ccc3OC)ccc2OC)cc1C(=O)N[C@@H](Cc1c[nH]c2ccccc12)C(=O)O [Compound 266],0.21 µM and 0.247 µM,122 nM and 162 nM and 164 nM,122 nM and 151 nM and 121 nM,214 nM and 265 nM and 368 nM,2440 nM and 1840 nM and 3480 nM,normal coagulation properties at fully efficacious doses,incomplete neutralization,effective at the higher 5 mg/kg dose,superior anti-fondaparinux activity,reduced hemodynamic liabilities,non-hemolytic and low cytotoxicity,superior to protamine,,,848,838,completely neutralizes enoxaparin within minutes,534,>1000,> 1000,hemodynamic response profile [5]: superior to protamine

# Second part, led by results:
EC50 [10],EC50 [11],EC50 [14],EC50 [4],EC50 [15],Structure (SMILES),coagulation properties via ROTEM [1],neutralization of prolonged bleeding times ([2]; test agent 5 mg/kg IV),reduction of Factor Xa (anti-factor Xa) levels after fondaparinux [3],Potent LMWH-antagonists with superior anti-fondaparinux activity (summary) [4],hemodynamic liabilities (summary) [5],hemolysis and cytotoxicity (summary) [6],in vivo efficacy versus LMWH by anti-factor Xa activity (summary) [7],in vivo efficacy versus fondaparinux (summary) [3],"Cytotoxicity 3T3, percent printed in parentheses after the concentration [8] [%]",Cytotoxicity 3T3 EC50 [8] [µg/mL],EC50 at 1 h [9] [µg/mL],"neutralization of enoxaparin (aPTT and factor Xa assays, words) [7]",EC50 at 1 h [12] [µg/mL],Cytotoxicity HepG2 EC50 [13] [µg/mL],EC50 [6] [µg/mL],other results
0.245 µM,101 nM and 140 nM,108 nM and 150 nM,90 nM and 154 nM,2540 nM and 1780 nM,COc1ccc(NC(=O)[C@H](CCCNC(=N)N)NC(=O)c2cc(NC(=O)[C@H](CCCNC(=N)N)NC(=O)c3cc(NC(=O)[C@H](CCCNC(=N)N)NC(=O)c4cc(NC(=O)[C@@H](N)CCCNC(=N)N)ccc4OC)ccc3OC)ccc2OCC(=O)O)cc1C(=O)N[C@@H](Cc1c[nH]c2ccccc12)C(N)=O [Compound 311],normal coagulation properties at fully efficacious doses,,markedly reduced,superior anti-fondaparinux activity,,non-hemolytic and low cytotoxicity,,in vivo efficacy versus fondaparinux,50,>1000,1000,marginally more efficacious than the 3-Arg derivative,1000,>1000,,"Cytotoxicity HepG2, percent printed in parentheses after the concentration [13]: 50%"
0.295 µM,208 nM,199 nM,265 nM,> 10000 nM,COc1ccc(NC(=O)[C@H](CCCNC(=N)N)NC(=O)c2cc(NC(=O)[C@H](CCCNC(=N)N)NC(=O)c3cc(NC(=O)[C@H](CCCNC(=N)N)NC(=O)c4cc(NC(C)=O)ccc4OC)ccc3OCC(=O)O)ccc2OC)cc1C(=O)N[C@@H](Cc1c[nH]c2ccccc12)C(N)=O [Compound 314],,,,,,,,,,,,,,,1000,hemolysis at 1 h [16]: 25%
0.196 µM,107 nM,115 nM,117 nM,3810 nM,COc1ccc(NC(=O)[C@H](CCCNC(=N)N)NC(=O)c2cc(NC(=O)[C@H](CCCNC(=N)N)NC(=O)c3cc(NC(=O)[C@H](CCCNC(=N)N)NC(=O)c4cc(NC(=O)[C@@H](N)CCCNC(=N)N)ccc4OC)ccc3OCC(=O)O)ccc2OC)cc1C(=O)N[C@@H](Cc1c[nH]c2ccccc12)C(N)=O [Compound 313],,,,,,,,,,,,,,,~100,hemolysis at 1 h [16]: 20%
